Test results: ChEMBL document CHEMBL1201862, “PubChem BioAssay data set” (2004)
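Five concentrations, 48 hours, 96-well plates. GI50 is the concentration that inhibits growth by half.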 Activity calls are given as the source filed them. Rule as the data show it: active = GI50 up to about 1.1 µM and inactive = higher.

How the values were obtained:
Assay in all cases: DTP human tumour cell line panel, 48 h
[1] = test system: SN12C
[2] = test system: HL-60
[3] = test system: DLD-1
[4] = test system: SK-MEL-28
[5] = test system: U-251
[6] = test system: SNB-78
[7] = test system: SK-MEL-5
[8] = test system: IGROV-1
[9] = test system: HT-29
[10] = test system: LOX IMVI
[11] = test system: UACC-62
[12] = test system: LXFL 529
[13] = test system: SK-OV-3
[14] = test system: HCT-15
[15] = test system: OVCAR-3
[16] = test system: ACHN
[17] = test system: OVCAR-5
[18] = test system: K562
[19] = test system: SK-MEL-2
[20] = test system: SF-539
[21] = test system: HCT-116
[22] = test system: HOP-18
[23] = test system: RPMI-8226
[24] = test system: NCI-H23
[25] = test system: CCRF-CEM
[26] = test system: UACC-257
[27] = test system: 786-0
[28] = test system: Malme-3M
[29] = test system: NCI-H226
[30] = test system: DMS-273
[31] = test system: M19-MEL
[32] = test system: EKVX
[33] = test system: COLO 205
[34] = test system: NCI-H460
[35] = test system: SF-295
[36] = test system: HCC 2998
[37] = test system: HOP-62
[38] = test system: OVCAR-4
[39] = test system: SNB-19
[40] = test system: XF498
[41] = test system: CAKI-1
[42] = test system: SW-620
[43] = test system: A549
[44] = test system: RXF 393
[45] = test system: TK-10
[46] = test system: KM12
[47] = test system: A498
[48] = test system: UO-31
[49] = test system: M14
[50] = test system: SF-268
[51] = test system: DMS-114
[52] = test system: KM-20L2
[53] = test system: MOLT-4
[54] = test system: OVCAR-8
[55] = test system: NCI-H522

Measured: GI50

Sc1nnc(-c2ccnc(-c3nnc(S)[nH]3)c2)[nH]1
> 100 µM: [14]
inactive: [1] > 100 µM | [2] > 100 µM | [3] > 100 µM | [4] > 100 µM | [5] > 100 µM | [6] > 100 µM | [7] > 100 µM | [8] > 100 µM | [9] > 100 µM | [10] > 100 µM | [11] > 100 µM | [12] > 100 µM | [13] > 100 µM | [15] > 100 µM | [16] > 100 µM | [17] > 100 µM | [18] > 100 µM | [19] > 100 µM | [20] > 100 µM | [21] > 100 µM | [22] > 100 µM | [23] > 100 µM | [24] > 100 µM | [25] > 100 µM | [26] > 100 µM | [27] > 100 µM | [28] > 100 µM | [29] > 100 µM | [30] > 100 µM | [31] > 100 µM | [32] > 100 µM | [33] > 100 µM | [34] > 100 µM | [35] > 100 µM | [36] > 100 µM | [37] > 100 µM | [38] > 100 µM | [39] > 100 µM | [40] > 79.1 µM | [41] > 100 µM | [42] > 100 µM | [43] > 100 µM | [44] > 100 µM | [45] > 100 µM | [46] > 100 µM | [47] > 100 µM | [48] > 100 µM | [49] > 100 µM | [50] > 100 µM | [51] > 100 µM | [52] > 100 µM | [53] > 100 µM | [54] > 100 µM | [55] > 100 µM
